Read-outs that look alike come from different tables or passages of the source.

The target of assay [1] is T1, human TRPA1 (Homo sapiens, UniProt O75762).
T1 construct: expressed in transfected cells; host or cells: HEK-293
As to the kind of experiment: Direct Addition Test Method, TRPA1 (FLIPR intracellular calcium). Type of assay: cell-based. As for the experimental part:
(§1) The Pre-Incubation Test and Direct Addition Test Methods, as defined herein, can be conducted on either TRPV1 or TRPA1 receptors.
(§2) Pre-Incubation Test Method: First, the intracellular calcium ion (Ca^+2) levels in TRPV1 and TRPA1 receptors is measured. […] Cells are detached with addition of 10 ml of PBS (phosphate buffered saline) by hand shaking gently. Cells are transferred to a 50 ml tube and centrifuged at 850 rpm for 3 minutes to remove PBS. After centrifugation, a pellet of cells is formed in the bottom of the tube separating them from the supernatant solution. […] Fluo-4 is a fluorescent dye used for quantifying cellular Ca^2+ concentrations in the 100 nM to 1 microM range. At the end of the 30 minutes, 45 ml of assay buffer [1× HBSS (Hank's Balanced Salt Solution), 20 mM HEPES (4-(2-Hydroxyethyl)-1-piperazineethanesulfonic acid)] is added to wash cells and the resulting combination is then centrifuged at 850 rpm for 3 minutes to remove excess buffer and Fluo-4 AM calcium indicator.
(§3) The pellet cells are re-suspended in 10 ml assay buffer and 90 μl aliquots (˜50,000 cells) per well delivered to a 96-well assay plate containing 10 μl of test compounds (1 mM in assay buffer, final concentration 100 μM) or buffer control and incubated at room temperature for 30 minutes. […] The FLIPR assay is an accepted method for detecting changes in intracellular calcium concentration. Then 20 μl of the activators [1.8 μM Capsaicin (final concentration 300 nM) for TRPV1 or 300 μM AITC (final concentration 50 μM) for TRPA1 is added by FLIPR automatically and fluorescence recorded immediately.
(§4) Direct Addition Test Method (for determining the direct effect of test compounds on TRPV1 and TRPA1): All procedures are same as the pre-incubation test except 10 μl assay buffer instead of 10 μl test compounds in the 96-well assay plates. The fluorescence is measured immediately after addition of 20 μl of 600 μM each compound (final concentration 100 μM). The 20 μl of activator (capsaicin or AITC) is as the positive control. The percentage of up-regulation or down-regulation is calculated based on the fluorescence measurement.
(A change in cytosolic calcium serves as a functional read-out for many receptors and channels.)

Assay [2] addresses T2, human TRPV1 (Homo sapiens, UniProt Q8NER1).
T2 construct: expressed in transfected cells; host or cells: HEK-293
Briefly: Direct Addition Test Method, TRPV1 (FLIPR intracellular calcium). Type of assay: cell-based. As to the method: as §1, §2, §3, §4

Assay [3] can be described thus: In use irritation Test 2 (single variable shave test with panelists). To be noted: control 5.60. Type of assay: in vivo. As to the method:
• In use irritation Test 2: Five samples are produced with the same blank testing formulation as in Test 1, above. Samples are tested with panelists in a single variable shave test with only the addition and level of sensate being varied.

Assay [4] addresses T2, human TRPV1. Briefly: Pre-Incubation Test Method, TRPV1 (FLIPR intracellular calcium, capsaicin activator). Type of assay: cell-based. As for the experimental part:
as §1, §2, §3

Assay [5] deals with T1, human TRPA1. Briefly: Pre-Incubation Test Method, TRPA1 (FLIPR intracellular calcium, AITC activator). In kind it is cell-based. As to the method:
as §1, §2, §3

A short description of assay [6]: In use irritation Test 1 (single variable shave test with panelists). Type of assay: in vivo. To be noted: control 6.3. As for the experimental part:
10. In Use Irritation Data: • In use irritation Test 1: Five samples are produced with the following formulation. Samples are tested with panelists in a single variable shave test with only the addition and level of sensate being varied. Respondents provide average irritation ratings summarized below. • Testing formula: […]

Setting [7] is: TRPA1, HEK-293 cells, compound final concentration 100 μM, no pre-incubation, AITC as positive control.
The mark [8] stands for this setting: TRPV1, HEK-293 cells, compound final concentration 100 μM, no pre-incubation, capsaicin as positive control.
Setting [9] is: TRPV1, HEK-293 cells, test compound final concentration 100 μM, 30 minutes pre-incubation, activator Capsaicin 300 nM.
Setting [10] is: TRPA1, HEK-293 cells, test compound final concentration 100 μM, 30 minutes pre-incubation, activator AITC 50 μM.
[11] abbreviates: sensate added to control formula at 0.2%.

T1 sequence (O75762 whole entry): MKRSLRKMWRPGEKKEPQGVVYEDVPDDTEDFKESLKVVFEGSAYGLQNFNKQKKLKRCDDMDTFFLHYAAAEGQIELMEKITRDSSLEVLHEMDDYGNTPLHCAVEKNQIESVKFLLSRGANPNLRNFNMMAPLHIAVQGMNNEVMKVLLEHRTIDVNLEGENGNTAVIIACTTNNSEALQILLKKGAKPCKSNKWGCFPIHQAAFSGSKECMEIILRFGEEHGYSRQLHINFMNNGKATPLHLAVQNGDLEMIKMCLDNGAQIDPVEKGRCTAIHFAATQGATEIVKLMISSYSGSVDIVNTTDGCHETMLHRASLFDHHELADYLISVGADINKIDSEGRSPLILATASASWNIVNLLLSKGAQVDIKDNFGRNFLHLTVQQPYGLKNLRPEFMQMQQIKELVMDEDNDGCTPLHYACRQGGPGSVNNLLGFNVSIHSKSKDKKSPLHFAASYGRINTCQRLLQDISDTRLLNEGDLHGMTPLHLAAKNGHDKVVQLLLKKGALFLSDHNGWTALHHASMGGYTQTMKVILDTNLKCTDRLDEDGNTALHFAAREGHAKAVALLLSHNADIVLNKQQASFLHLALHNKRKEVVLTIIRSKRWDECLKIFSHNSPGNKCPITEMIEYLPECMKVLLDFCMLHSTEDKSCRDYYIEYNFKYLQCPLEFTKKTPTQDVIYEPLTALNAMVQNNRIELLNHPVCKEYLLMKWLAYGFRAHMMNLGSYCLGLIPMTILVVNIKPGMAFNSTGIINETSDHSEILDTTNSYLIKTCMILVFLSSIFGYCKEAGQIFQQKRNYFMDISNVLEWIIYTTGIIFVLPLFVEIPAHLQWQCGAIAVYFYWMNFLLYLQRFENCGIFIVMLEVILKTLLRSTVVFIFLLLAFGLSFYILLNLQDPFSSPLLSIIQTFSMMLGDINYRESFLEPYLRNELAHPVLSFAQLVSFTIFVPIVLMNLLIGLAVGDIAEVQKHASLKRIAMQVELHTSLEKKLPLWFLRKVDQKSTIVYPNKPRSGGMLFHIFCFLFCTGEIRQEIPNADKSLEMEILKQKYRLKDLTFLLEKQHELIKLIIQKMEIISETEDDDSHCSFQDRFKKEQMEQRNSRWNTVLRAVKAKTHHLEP
T2 sequence (Q8NER1 whole entry): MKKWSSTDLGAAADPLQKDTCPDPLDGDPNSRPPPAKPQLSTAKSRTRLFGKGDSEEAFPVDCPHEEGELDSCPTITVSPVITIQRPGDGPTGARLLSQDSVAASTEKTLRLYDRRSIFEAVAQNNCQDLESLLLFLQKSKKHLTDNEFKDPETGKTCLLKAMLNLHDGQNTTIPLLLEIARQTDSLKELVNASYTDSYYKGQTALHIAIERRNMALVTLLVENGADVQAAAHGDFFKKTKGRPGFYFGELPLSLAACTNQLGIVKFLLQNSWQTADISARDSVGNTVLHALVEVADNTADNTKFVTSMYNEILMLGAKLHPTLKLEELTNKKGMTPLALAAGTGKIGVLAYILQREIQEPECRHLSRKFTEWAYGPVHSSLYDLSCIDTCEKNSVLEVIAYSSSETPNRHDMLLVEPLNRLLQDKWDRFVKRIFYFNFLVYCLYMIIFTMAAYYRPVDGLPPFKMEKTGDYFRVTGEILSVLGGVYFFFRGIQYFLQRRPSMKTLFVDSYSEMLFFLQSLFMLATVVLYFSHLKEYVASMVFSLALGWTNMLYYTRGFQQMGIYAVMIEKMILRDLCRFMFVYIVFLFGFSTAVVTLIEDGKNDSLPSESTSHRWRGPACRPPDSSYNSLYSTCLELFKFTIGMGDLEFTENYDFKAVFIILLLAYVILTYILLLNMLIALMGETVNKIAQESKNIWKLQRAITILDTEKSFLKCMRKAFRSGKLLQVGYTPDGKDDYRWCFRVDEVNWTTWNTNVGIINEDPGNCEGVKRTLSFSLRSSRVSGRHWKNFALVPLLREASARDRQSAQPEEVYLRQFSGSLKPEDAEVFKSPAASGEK

As for `CC(=O)[O][Zn][O]C(C)=O` [Zinc Acetate, zinc acetate], the “Direct Addition % Regulation” value at human TRPA1 [1] is −0.66%; at human TRPV1 [2] it was 0.88%. In addition, in assay [3] (sensate at 0.03% in control formulation), the “Avg Irritation Score” value amounted to 4.55. The results for the “Pre-incubation % Regulation” value on human TRPV1 [4] and on human TRPA1 [5] were 35.2% and 21.67%, respectively.
Consider `OCc1ccccc1` [Benzyl Alcohol, benzyl alcohol], for which the “Direct Addition % Regulation” value is on record as 21.39% on human TRPA1 [1] (setting [7]) and −2.09% on human TRPV1 [2] (setting [8]). In addition, the “Avg Irritation Score” value in assay [6] (sensate added to control formula at 1%) came to 4.8. For the same molecule, the “Pre-incubation % Regulation” value on human TRPV1 [4] (setting [9]) is on record as 51.18%; on human TRPA1 [5] (setting [10]), 14.61%.
Consider `CC(C)C(=O)OCCOc1ccccc1` [Phenoxyethyl Isobutyrate, phenoxyethyl isobutyrate], for which the results for the “Direct Addition % Regulation” value at human TRPA1 [1] (setting [7]) and at human TRPV1 [2] (setting [8]) were −7.84% and −6.84%, respectively. Besides, the “Avg Irritation Score” value in assay [3] (sensate at 0.13% in control formulation) was 4.45. For the same molecule, the “Pre-incubation % Regulation” value at human TRPV1 [4] (setting [9]) came out at 41.34%; on human TRPA1 [5] (setting [10]), 36.8%.
In the case of `Cc1cc(O)cc(C)c1Cl` [Chloroxylenol, chloroxylenol], the “Direct Addition % Regulation” value worked out at 381.06% on human TRPA1 [1] (setting [7]) and 326.69% on human TRPV1 [2] (setting [8]). Besides, in assay [6] (setting [11]), the “Avg Irritation Score” value came out at 5.2. Besides, the figures for the “Pre-incubation % Regulation” value on human TRPV1 [4] (setting [9]) and at human TRPA1 [5] (setting [10]) were 37.52% and −0.08%, respectively.
Regarding `Cc1cc(O)ccc1Cl` [4-chloro-3-methylphenol], the results for the “Direct Addition % Regulation” value on human TRPA1 [1] (setting [7]) and at human TRPV1 [2] (setting [8]) were 319.54% and 292.92%, respectively. The “Avg Irritation Score” value in assay [6] (setting [11]) is given as 4.3. The figures for the “Pre-incubation % Regulation” value at human TRPV1 [4] (setting [9]) and on human TRPA1 [5] (setting [10]) were 47.49% and −0.43%, respectively.
For `C=C1CCC(C)C(C)(C)C1/C=C/C(C)=O` (stereo not shown), the “Direct Addition % Regulation” value was determined as 4.96% on human TRPA1 [1] (setting [7]) and 5.24% on human TRPV1 [2] (setting [8]). Also, the “Avg Irritation Score” value in assay [3] (sensate at 0.1% in control formulation) is recorded as 5.40. Further, the “Pre-incubation % Regulation” value at human TRPV1 [4] (setting [9]) amounted to 22.16%; on human TRPA1 [5] (setting [10]), 23.55%.
In the case of `CC(=O)CCC=C(C)C` [6-Methyl-5-hepten-2-one, 6-methyl-5-hepten-2-one], in assay [6] (sensate added to control formula at 0.15%), the “Avg Irritation Score” value came out at 6.0.

These data come from patent US20170000702A1, “PERSONAL CARE COMPOSITIONS COMPRISING A SENSATE” (The Gillette Park, priority 2015, published 2017).
